IC50 data for 19 molecules are collected here from patent US20050107343A1, “Pyrrolopyrimidines and related analogs as HSP90-inhibitors” (Conforma Therapeutics Corporation, priority 2003, published 2005).

Experiment [1] concerns rHSP90 in the MCF7 cell lysates. In words: Cell lysate binding assay. Conditions: 50% inhibition of biotin-GM binding to rHSP90 in MCF7 cell lysates. As for the experimental part: Cell Lysate Binding Assay
MCF7 breast carcinoma cell lysates were prepared by douncing in lysing buffer (20 mM HEPES, pH 7.3, 1 mM EDTA, 5 mM MgCl2, 100 mM KCl), and then incubated with or without test compound for 30 mins at 4° C., followed by incubation with biotin-GM linked to BioMag™ streptavidin magnetic beads (Qiagen) for 1 hr at 4° C. The tubes were placed on a magnetic rack, and the unbound supernatant removed. The magnetic beads were washed three times in lysis buffer and boiled for 5 mins at 95° C. in SDS-PAGE sample buffer. Samples were analyzed on SDS protein gels, and Western blots were done for rHSP90. Bands in the Western Blots were quantitated using the Bio-rad Fluor-S MultiImager, and the % inhibition of binding of rHSP90 to the biotin-GM was calculated.
The IC50 reported is the concentration of test compound needed to achieve 50% inhibition of the biotin-GM binding to rHSP90 in the MCF7 cell lysates.

For the next experiment, the system named is HER2/Neu protein. In words: HER2 degradation assay. It is filed as cell-based. Conditions: Homo sapiens; 50% degradation of HER2/Neu protein, MCF7 cells, 16 h. The method, then:
MCF7 breast carcinoma cells (ATCC) were grown in Dulbecco's modified Eagle's medium (DMEM) containing 10% fetal bovine serum (FBS) and 10 mM HEPES, and plated in 24 well plates (50% confluent). Twenty-four hrs later (cells are 65-70% confluent), test compounds were added and incubated overnight for 16 h. […] The wells were washed with 1 mL phosphate buffered saline (PBS), and 200 μL trypsin was added to each well. After trypsinization was complete, 50 μL of FBS was added to each well. Then 200 μL cells was transferred to 96 well plates. The cells were pipetted up and down to obtain a single cell suspension. The plates were centrifuged at 2,500 rpm for 1 min using a Sorvall Legend RT™ tabletop centrifuge (Kendro Laboratory Products, Asheville, N.C.). The cells were then washed once in PBS containing 0.2% BSA and 0.2% sodium azide (BA buffer). Phycoerythrin (PE) conjugated anti HER2/Neu antibody (Becton Dickinson, #340552), or PE conjugated anti-keyhole limpet hemocyanin [KLH] (Becton Dickinson, #340761) control antibody was added at a dilution of 1:20 and 1:40 respectively (final concentration was 1 μg/mL) and the cells were pipeted up and down to form a single cell suspension, and incubated for 15 mins. The cells were washed twice with 200 μL BA buffer, and resuspended in 200 μL BA buffer, and transferred to FACSCAN tubes with an additional 250 μL BA buffer. Samples were analyzed using a FACSCalibur™ flow cytometer (Becton Dickinson, San Jose, Calif.) equipped with Argon-ion laser that emits 15 mW of 488 nm light for excitation of the PE fluorochrome. 10,000 events were collected per sample. A fluorescence histogram was generated and the mean fluorescence intensity (MFI) of each sample was determined using Celiquest software. The background was defined as the MFI generated from cells incubated with control IgG-PE, and was subtracted from each sample stained with the HER2/Neu antibody. Cells incubated with DMSO were used as untreated controls since the compounds were resuspended in DMSO. Percent degradation of HER2 was calculated as follows: % HER2 degraded=[(MF1 untreated cells−MF1 treated cells)/MF1 untreated cell]×100
IC50 is defined as the concentration at which there was 50% degradation of the HER2/Neu protein.

Experiment [2] concerns MCF7 breast carcinoma cells. The experiment in a line: MTS assay. It is filed as cell-based. Conditions: Homo sapiens, 50% reduction in viable cell number. As for the experimental part:
MTS assays measure the cytotoxicity of geldanamycin derivatives. MTS (3-(4,5-dimethylthiazol-2-yl)-5-(3-carboxymethoxyphenyl)-2-(4-sulfophenyl)-2H-tetrazolium) is a tetrazolium dye that is converted to a formazan product by dehydrogenase enzymes of metabolically active cells (Corey, A. et al. “Use of an aqueous soluble tetrazolium/formazan assay for cell growth assays in culture,” Cancer Commun. 1991, 3, 207-212). Cells were seeded in 96 well plates at 2000 cells/well and allowed to adhere overnight in Dulbecco's modified Eagle's medium supplemented with 10% fetal bovine serum. The final culture volume was 100 μl. Viable cell number was determined by using the Celltiter 96 AQueous Non-radioactive Cell Proliferation Assay (Promega, Madison Wis.). The MTS /PMS (phenazine methosulfate) solution was mixed at a ratio of 20:1, and 20 μL was added per well to 100 μl of culture medium. After 2-4 hours, the formation of the formazan product was measured at 490 nm absorbance using a multiwell plate spectrophotometer. Background was determined by measuring the Abs 490 nm of cell culture medium and MTS-PMS in the absence of cells and was subtracted from all values. Percent viable cells was calculated as follows: % viable cells=(Abs at 490 nm treated cells/Abs at 490 nm untreated cells)×100
The effect of selected compounds of the invention on MCF7 breast carcinoma cells according to the MTS assay is summarized in Table 2. IC50 was defined as the concentration of the compound which gave rise to 50% reduction in viable cell number.
On the technique in general: Formazan colour is commonly taken as a measure of viable cells.

SMILES strings stand for the structures.

Turning to `Cc1cnc(Cn2ccc3c(Cl)nc(N)nc32)c(C)c1Br` [Example 13, 7-(4-Bromo-3,5-dimethyl-pyridin-2-ylmethyl)-4-chloro-7H-pyrrolo[2,3-d]pyrimidin-2-ylamine], the IC50 (in general, the concentration that gives 50% inhibition) in experiment [1] came out at 0.09 µM; in the experiment on HER2/Neu protein it was 0.05 µM; in experiment [2], 1 µM.

`COc1c(C)c[n+]([O-])c(Cn2ccc3c(Br)nc(N)nc32)c1C` [Example 20, 4-Bromo-7-(4-methoxy-3,5-dimethyl-1-oxy-pyridin-2-ylmethyl)-7H-pyrrolo[2,3-d]pyrimidin-2-ylamine]: the figures for the IC50 (in the experiment on HER2/Neu protein; in experiment [2]) were 0.042 µM and 1 µM, respectively.

As to `Cc1cnc(Cn2ccc3c(Br)nc(N)nc32)c(C)c1Br` [Example 23, 4-Bromo-7-(4-bromo-3,5-dimethyl-pyridin-2-ylmethyl)-7H-pyrrolo[2,3-d]pyrimidin-2-ylamine], the IC50 with HER2/Neu protein is 0.13 µM; in experiment [2], over 10 µM.

With `COc1c(C)cnc(Cn2cc(C(C)C)c3c(Cl)nc(N)nc32)c1C` [Example 43, 4-Chloro-5-isopropyl-7-(4-methoxy-3,5-dimethyl-pyridin-2-ylmethyl)-7H-pyrrolo[2,3-d]pyrimidin-2-ylamine], half-maximal inhibition in the experiment on HER2/Neu protein (IC50) required 0.13 µM.

Turning to `Cc1c[n+]([O-])c(Cn2ccc3c(Cl)nc(N)nc32)c(C)c1Br` [Example 15, 7-(4-Bromo-3,5-dimethyl-1-oxy-pyridin-2-ylmethyl)-4-chloro-7H-pyrrolo[2,3-d]pyrimidin-2-ylamine], the results for the 50% inhibitory concentration (IC50) (in experiment [1]; in the experiment with HER2/Neu protein; in experiment [2]) were 0.03 µM, 0.015 µM and 0.023 µM, respectively.

Regarding `Cc1cnc(Cn2ccc3c(Br)nc(N)nc32)c(C)c1Cl` [Example 21, 4-Bromo-7-(4-chloro-3,5-dimethyl-pyridin-2-ylmethyl)-7H-pyrrolo[2,3-d]pyrimidin-2-ylamine], the half-maximal inhibitory concentration (IC50) in the experiment with HER2/Neu protein is 0.17 µM; in experiment [2], over 10 µM.

As to `Cc1c[n+]([O-])c(Cn2ccc3c(Br)nc(N)nc32)c(C)c1Br` [Example 24, 4-Bromo-7-(4-bromo-3,5-dimethyl-1-oxy-pyridin-2-ylmethyl)-7H-pyrrolo[2,3-d]pyrimidin-2-ylamine], the IC50 in the experiment on HER2/Neu protein stood at 0.025 µM; in experiment [2], 0.3 µM.

Take `Cc1c[n+]([O-])c(Cn2ccc3c(Cl)nc(N)nc32)c(C)c1Cl` [Example 14, 4-Chloro-7-(4-chloro-3,5-dimethyl-1-oxy-pyridin-2-ylmethyl)-7H-pyrrolo[2,3-d]pyrimidin-2-ylamine]: the IC50 was found to be 0.05 µM in experiment [1], 0.038 µM in the experiment on HER2/Neu protein and 1 µM in experiment [2].

Regarding `Cc1cnc(Cn2ccc3c(Cl)nc(N)nc32)c(C)c1Cl` [Example 11, 4-Chloro-7-(4-chloro-3,5-dimethyl-pyridin-2-ylmethyl)-7H-pyrrolo[2,3-d]pyrimidin-2-ylamine], the 50% inhibitory concentration (IC50) in experiment [1] was 0.09 µM; with HER2/Neu protein, 0.08 µM; in experiment [2] it was 0.2 µM.

Take `COc1c(C)cnc(Cn2ccc3c(Cl)nc(N)nc32)c1C` [Example 5, 4-Chloro-7-(4-methoxy-3,5-dimethyl-pyridin-2-ylmethyl)-7H-pyrrolo[2,3-d]pyrimidin-2-ylamine]: the figures for the IC50 (in experiment [1]; in the experiment on HER2/Neu protein; in experiment [2]) were 0.15 µM, 0.095 µM and 0.3 µM, respectively.

In the experiment with HER2/Neu protein, `Cc1cnc(CN2C(=O)Cc3c(Cl)nc(N)nc32)c(C)c1Cl` [Example 48, 2-Amino-4-chloro-7-(4-chloro-3,5-dimethyl-pyridin-2-ylmethyl)-5,7-dihydro-pyrrolo[2,3-d]pyrimidin-6-one] displayed a concentration for half-maximal inhibition (IC50) of 1.5 µM.

Consider `Cc1c[n+]([O-])c(Cn2ccc3c(Br)nc(N)nc32)c(C)c1Cl` [Example 22, 4-Bromo-7-(4-chloro-3,5-dimethyl-1-oxy-pyridin-2-ylmethyl)-7H-pyrrolo[2,3-d]pyrimidin-2-ylamine], for which the half-maximal inhibitory concentration (IC50) in the experiment on HER2/Neu protein came out at 0.065 µM; in experiment [2] it was 1 µM.

On to `COc1c(C)c[n+]([O-])c(CN2C(=O)Cc3c(Cl)nc(N)nc32)c1C` [Example 49, 2-Amino-4-chloro-7-(3,5-dimethyl-4-methoxy-1-oxy-pyridin-2-ylmethyl)-5,7-dihydro-pyrrolo[2,3-d]pyrimidin-6-one], for which the IC50 in the experiment with HER2/Neu protein amounted to 0.18 µM; in experiment [2], 0.9 µM.

In the experiment on HER2/Neu protein, `COc1c(C)cnc(CN2C(=O)Cc3c(Cl)nc(N)nc32)c1C` registered a 50% inhibitory concentration (IC50) of 0.45 µM.

Take `COc1cc(CN2C(=O)Cc3c(Cl)nc(N)nc32)c(Br)c(OC)c1OC` [Example 52, 2-Amino-4-chloro-7-(2-bromo-3,4,5-trimethoxy-benzyl)-5,7-dihydro-pyrrolo[2,3-d]pyrimidin-6-one]: the 50% inhibitory concentration (IC50) amounted to 0.4 µM with HER2/Neu protein and 10 µM in experiment [2].

As to `COc1c(C)c(Cl)nc(Cn2ccc3c(Cl)nc(N)nc32)c1C` [Example 10, 4-Chloro-7-(6-chloro-4-methoxy-3,5-dimethyl-pyridin-2-ylmethyl)-7H-pyrrolo [2,3-d]pyrimidin-2-ylamine], the figures for the IC50 (with HER2/Neu protein; in experiment [2]) were 0.25 µM and 0.6 µM, respectively.

For the molecule `COc1c(C)cnc(Cn2ccc3c(Br)nc(N)nc32)c1C` [Example 25, 4-Bromo-7-(4-methoxy-3,5-dimethyl-pyridin-2-ylmethyl)-7H-pyrrolo[2,3-d]pyrimidin-2-ylamine], the IC50 is 0.15 µM in the experiment on HER2/Neu protein and over 10 µM in experiment [2].

`Cc1c[n+]([O-])c(Cn2cc(C(C)C)c3c(Cl)nc(N)nc32)c(C)c1Cl` [Example 45] had a half-maximal inhibitory concentration (IC50) in the experiment with HER2/Neu protein of 0.02 µM.

As for `COc1c(C)c[n+]([O-])c(Cn2ccc3c(Cl)nc(N)nc32)c1C` [Example 8, 4-Chloro-7-(4-methoxy-3,5-dimethyl-1-oxy-pyridin-2-ylmethyl)-7H-pyrrolo[2,3-d]pyrimidin-2-ylamine], the half-maximal inhibitory concentration (IC50) amounted to 0.023 µM with HER2/Neu protein and 0.1 µM in experiment [2].
